# Measurements taken from ChEMBL document CHEMBL1201862, “PubChem BioAssay data set” (2004).
# The source made the active and inactive calls.
# Experiments:
# [1] = biological target: T1, Acyl-homoserine lactone acylase PvdQ (Pseudomonas aeruginosa (strain LESB58), UniProt Q9I194); experiment: PvdQ acylase enzyme activity blockers – biochemical, fluorescence, plate reader and imaging, cherry-picks, dose response (AID 493231)
# T1 sequence (Q9I194 whole entry): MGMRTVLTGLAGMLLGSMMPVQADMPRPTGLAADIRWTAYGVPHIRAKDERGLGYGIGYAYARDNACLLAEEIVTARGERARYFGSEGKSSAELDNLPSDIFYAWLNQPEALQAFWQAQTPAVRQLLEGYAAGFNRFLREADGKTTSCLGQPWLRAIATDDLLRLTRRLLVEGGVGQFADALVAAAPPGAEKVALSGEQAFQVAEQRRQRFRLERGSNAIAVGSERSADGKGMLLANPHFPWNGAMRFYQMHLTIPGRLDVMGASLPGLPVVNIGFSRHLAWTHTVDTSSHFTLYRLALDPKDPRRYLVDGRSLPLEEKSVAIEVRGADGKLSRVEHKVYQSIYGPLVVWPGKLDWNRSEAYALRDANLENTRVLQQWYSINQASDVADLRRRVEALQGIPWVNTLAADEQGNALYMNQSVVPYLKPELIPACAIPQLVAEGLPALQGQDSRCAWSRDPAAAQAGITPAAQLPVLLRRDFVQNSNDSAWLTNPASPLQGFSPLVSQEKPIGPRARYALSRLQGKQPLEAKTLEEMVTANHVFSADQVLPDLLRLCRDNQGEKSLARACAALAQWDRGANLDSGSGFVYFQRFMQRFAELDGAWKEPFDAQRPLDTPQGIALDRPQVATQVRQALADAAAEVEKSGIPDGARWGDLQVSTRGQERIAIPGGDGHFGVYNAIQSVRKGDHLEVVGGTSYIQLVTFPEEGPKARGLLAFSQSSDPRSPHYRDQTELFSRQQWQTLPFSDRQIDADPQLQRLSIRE
# [2] = A cytotoxicity screen of small molecule inhibitors of the PhoP region in Salmonella typhi identified in the primary screen. [Related pubchem assays: 1850, 1864, 1985 ]; format: functional
# Protein RecA = biological target: T2, Protein RecA (Mycobacterium tuberculosis, UniProt P9WHJ3); experiment: Fluorescence Cell-Free Homogeneous Dose Retest to Identify Inhibitors of RecA-Intein Splicing Activity. [Related pubchem assays (depositor defined):AID2097, AID2223, AID489010, AID492950]; format: functional
# T2 sequence (P9WHJ3 whole entry): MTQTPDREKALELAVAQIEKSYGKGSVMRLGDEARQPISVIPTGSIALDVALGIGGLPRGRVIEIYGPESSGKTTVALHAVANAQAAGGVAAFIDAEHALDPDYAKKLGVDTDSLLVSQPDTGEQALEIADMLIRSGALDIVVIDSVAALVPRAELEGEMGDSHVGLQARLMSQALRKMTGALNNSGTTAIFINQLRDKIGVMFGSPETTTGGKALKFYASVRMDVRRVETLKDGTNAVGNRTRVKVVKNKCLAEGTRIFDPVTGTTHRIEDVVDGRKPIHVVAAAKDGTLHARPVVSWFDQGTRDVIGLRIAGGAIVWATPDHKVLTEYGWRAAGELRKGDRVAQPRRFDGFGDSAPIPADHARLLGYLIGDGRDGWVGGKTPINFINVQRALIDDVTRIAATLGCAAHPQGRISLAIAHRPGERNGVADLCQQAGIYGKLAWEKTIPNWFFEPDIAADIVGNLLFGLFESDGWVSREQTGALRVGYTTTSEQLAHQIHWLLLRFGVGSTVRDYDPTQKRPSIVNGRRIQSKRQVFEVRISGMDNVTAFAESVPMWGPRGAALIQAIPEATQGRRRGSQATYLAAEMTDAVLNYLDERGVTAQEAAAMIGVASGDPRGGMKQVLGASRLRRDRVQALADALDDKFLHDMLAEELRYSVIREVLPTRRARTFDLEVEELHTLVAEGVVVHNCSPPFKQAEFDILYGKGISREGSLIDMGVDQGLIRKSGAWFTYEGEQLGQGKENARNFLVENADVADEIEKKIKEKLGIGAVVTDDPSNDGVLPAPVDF
# [3] = biological target: T3, Calpain-2 catalytic subunit (Sus scrofa, UniProt P43367); experiment: m-calpain protease blockers, concentration series – biochemical, fluorogenic peptide substrate, dose response (AID 1420); format: functional
# T3 sequence (P43367 whole entry): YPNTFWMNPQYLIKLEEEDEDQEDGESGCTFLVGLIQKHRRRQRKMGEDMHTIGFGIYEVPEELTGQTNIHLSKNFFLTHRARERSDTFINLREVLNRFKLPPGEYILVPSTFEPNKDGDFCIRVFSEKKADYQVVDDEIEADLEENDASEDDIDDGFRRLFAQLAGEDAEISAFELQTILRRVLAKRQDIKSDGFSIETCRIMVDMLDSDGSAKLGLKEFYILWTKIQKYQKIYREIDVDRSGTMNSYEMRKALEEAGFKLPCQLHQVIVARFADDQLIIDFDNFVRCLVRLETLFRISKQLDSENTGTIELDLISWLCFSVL
# Aminopeptidase N = biological target: T4, Aminopeptidase N (Plasmodium falciparum FcB1/Columbia, UniProt O96935); experiment: malaria alanyl aminopeptidase activity blockers – biochemical, fluorogenic H-Leu-NHMec substrate, 1536-well (AID 1445); parameters: species or system Plasmodium falciparum 3D7, 3D7
# T4 sequence (O96935 whole entry): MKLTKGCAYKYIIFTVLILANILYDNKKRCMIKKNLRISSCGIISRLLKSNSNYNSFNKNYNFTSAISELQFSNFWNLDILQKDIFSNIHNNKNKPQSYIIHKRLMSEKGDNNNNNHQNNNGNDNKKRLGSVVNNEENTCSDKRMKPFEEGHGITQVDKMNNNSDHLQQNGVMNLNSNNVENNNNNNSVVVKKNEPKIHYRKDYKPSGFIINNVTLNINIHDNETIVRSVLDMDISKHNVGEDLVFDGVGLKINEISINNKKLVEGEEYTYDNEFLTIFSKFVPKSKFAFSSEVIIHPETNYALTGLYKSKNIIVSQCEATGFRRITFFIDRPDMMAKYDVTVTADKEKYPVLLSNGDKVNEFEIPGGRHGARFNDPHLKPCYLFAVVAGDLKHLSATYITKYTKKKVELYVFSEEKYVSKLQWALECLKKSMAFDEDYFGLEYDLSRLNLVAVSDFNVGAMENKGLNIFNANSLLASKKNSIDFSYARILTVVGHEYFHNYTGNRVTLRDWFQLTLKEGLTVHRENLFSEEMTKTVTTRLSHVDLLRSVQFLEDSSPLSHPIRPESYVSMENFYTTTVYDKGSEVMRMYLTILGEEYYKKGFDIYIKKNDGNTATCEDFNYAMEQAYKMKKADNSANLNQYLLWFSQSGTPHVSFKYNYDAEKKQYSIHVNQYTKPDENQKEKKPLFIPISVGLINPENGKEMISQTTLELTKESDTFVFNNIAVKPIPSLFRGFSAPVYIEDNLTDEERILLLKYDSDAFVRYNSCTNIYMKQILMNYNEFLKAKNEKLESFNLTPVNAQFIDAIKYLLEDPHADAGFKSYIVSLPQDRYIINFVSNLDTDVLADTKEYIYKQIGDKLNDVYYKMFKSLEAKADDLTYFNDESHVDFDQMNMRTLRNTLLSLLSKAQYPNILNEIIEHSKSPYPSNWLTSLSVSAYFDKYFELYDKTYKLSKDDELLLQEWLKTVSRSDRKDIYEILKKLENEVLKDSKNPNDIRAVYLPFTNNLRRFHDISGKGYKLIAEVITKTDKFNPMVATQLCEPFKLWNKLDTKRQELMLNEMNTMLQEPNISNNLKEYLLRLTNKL
# [4] = biological target: Induced myeloid leukemia cell differentiation protein Mcl-1 (Homo sapiens, UniProt Q07820); format: functional
# Chain of Induced myeloid leukemia cell differentiation protein Mcl-1 (Q07820 whole entry, the tested form may be a part): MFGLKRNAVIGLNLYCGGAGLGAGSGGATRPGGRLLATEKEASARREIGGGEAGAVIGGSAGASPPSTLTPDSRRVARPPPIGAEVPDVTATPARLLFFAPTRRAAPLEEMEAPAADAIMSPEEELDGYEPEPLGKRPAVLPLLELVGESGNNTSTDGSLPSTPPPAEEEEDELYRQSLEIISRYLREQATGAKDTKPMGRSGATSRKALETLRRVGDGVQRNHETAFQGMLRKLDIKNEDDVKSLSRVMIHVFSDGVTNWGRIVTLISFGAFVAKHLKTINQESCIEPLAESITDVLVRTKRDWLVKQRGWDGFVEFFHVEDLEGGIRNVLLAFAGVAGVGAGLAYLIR
# [5] = CCR5-tropic HIV-1 fusion blockers – cell-based, CCR5-tropic Env, dose response (AID 2279); format: functional
# [6] = biological target: T5, Replicative DNA helicase DnaB (Mycobacterium tuberculosis, UniProt P9WMR3); experiment: DnaB intein splicing inhibitors, dose response, biochemical, cell-free fluorescence (AID 449749); format: functional
# T5 sequence (P9WMR3 whole entry): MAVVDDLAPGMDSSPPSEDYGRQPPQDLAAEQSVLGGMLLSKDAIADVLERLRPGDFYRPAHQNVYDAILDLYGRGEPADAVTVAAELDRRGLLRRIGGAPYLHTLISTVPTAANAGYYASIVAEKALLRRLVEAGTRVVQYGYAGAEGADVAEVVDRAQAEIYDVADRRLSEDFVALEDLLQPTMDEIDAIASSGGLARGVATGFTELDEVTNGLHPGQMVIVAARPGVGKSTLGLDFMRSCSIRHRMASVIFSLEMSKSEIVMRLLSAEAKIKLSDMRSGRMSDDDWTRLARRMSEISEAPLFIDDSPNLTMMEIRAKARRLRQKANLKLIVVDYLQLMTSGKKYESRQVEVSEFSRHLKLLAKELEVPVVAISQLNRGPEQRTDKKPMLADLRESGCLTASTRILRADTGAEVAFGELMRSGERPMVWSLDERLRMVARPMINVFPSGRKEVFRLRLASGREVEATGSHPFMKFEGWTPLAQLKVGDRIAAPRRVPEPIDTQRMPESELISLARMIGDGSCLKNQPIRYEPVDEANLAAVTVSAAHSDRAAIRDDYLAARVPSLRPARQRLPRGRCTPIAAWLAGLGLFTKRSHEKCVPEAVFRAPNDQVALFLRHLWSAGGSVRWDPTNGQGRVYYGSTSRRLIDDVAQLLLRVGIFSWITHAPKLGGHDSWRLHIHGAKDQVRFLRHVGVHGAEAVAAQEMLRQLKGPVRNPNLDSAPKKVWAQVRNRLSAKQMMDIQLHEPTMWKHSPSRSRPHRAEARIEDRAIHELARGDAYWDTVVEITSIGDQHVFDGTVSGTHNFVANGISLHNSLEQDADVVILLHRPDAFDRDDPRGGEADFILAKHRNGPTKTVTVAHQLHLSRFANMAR
# [7] = biological target: Eukaryotic translation initiation factor 4E (Mus musculus, UniProt P63073); experiment: blockers of eIF4G binding by eIF4E – biochemical, TR-FRET, dose response (AID 855); format: functional;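 also: potency for disrupting eIF4E binding to eIF4GI seen as loss of FRET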
# Chain of Eukaryotic translation initiation factor 4E (P63073 whole entry): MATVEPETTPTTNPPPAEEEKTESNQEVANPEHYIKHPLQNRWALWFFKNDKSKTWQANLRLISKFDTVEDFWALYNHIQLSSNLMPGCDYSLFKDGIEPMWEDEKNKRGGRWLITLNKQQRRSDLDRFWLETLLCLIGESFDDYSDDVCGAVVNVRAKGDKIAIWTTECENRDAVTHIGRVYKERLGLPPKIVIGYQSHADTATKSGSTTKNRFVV
# [8] = biological target: T6, Rac GTPase-activating protein 1 (Homo sapiens, UniProt Q9H0H5); experiment: blockers of MgcRacGAP-driven Rac1 GTP hydrolysis – biochemical, ADP Hunter fluorescence, primary and confirmatory, confirmation (AID 624330); format: functional
# T6 sequence (Q9H0H5 whole entry): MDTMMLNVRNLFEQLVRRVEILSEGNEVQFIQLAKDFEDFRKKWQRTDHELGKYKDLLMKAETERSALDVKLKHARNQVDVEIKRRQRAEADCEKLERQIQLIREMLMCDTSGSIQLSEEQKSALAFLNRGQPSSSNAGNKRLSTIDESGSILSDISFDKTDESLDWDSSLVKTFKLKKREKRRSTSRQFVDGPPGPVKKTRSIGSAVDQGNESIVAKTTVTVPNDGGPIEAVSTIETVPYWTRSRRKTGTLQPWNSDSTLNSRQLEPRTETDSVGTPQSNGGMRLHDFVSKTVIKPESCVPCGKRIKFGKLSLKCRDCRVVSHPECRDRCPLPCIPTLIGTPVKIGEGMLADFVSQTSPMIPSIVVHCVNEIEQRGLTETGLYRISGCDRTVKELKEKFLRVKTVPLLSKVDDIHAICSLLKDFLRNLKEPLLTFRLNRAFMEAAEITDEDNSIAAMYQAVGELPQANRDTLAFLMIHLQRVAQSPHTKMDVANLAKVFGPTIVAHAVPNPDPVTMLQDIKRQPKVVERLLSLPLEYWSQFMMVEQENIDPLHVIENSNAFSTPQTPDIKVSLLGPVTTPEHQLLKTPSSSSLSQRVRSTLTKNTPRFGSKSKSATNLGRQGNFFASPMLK
# HEK293 = experiment: cells; format: functional, cell-based; settings: Homo sapiens
# [9] = biological target: T7, Nuclear receptor subfamily 0 group B member 1 (Homo sapiens, UniProt P51843); experiment: Luminescence-based cell-based high throughput dose response assay for inhibitors of the orphan nuclear receptor subfamily 0, group B, member 1 (DAX1; NR0B1). [Related pubchem assays (depositor defined):AID504766, AID504790]; format: functional
# T7 sequence (P51843 whole entry): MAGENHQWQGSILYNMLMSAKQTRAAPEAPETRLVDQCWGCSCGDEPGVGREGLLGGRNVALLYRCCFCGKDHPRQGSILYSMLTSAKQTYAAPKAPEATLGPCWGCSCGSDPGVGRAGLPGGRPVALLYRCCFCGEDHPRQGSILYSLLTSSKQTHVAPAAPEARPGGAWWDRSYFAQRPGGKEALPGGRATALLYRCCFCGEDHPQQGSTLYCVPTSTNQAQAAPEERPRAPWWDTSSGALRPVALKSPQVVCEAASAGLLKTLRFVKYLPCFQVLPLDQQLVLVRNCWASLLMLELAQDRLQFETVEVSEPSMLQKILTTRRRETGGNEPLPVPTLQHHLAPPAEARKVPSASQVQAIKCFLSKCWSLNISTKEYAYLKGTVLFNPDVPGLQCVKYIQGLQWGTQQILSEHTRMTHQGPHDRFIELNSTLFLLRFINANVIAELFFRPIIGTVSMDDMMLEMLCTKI
# [10] = HEK-293T cell viability reduction – luminescence, B-cell screen hits, cytotoxicity control for BCR NF-kB inhibitor project, dose response (AID 489021); format: functional, cell-based;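 also: HEK-293T cells carrying an NF-kB luciferase reporter; cells exposed to compound for about 14 hours before viability readout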
smiles,measurement,setting,value
O=C1C2C3C=CC(C4CC34)C2C(=O)N1Cc1ccco1 (centres undefined),AC50,[1],12.4 µM (active)
COc1ccc(N2CCN(C(CNC(=O)c3ccc4c(c3)OCO4)c3ccco3)CC2)cc1 (centres undefined),EC50,[2],> 50 µM (active)
O=C1C=C(c2cccc(Br)c2)C[C@@H](c2ccc(F)cc2)C1,AC50,[1],48.9 µM (active)
O=C(O)CCc1nc(-c2ccc(Cl)cc2)no1,AC50,[1],16.1 µM (active)
N#Cc1cc(-c2ccccc2)cnc1Cl,AC50,[1],6.29 µM (active)
COc1cc(/C=C2/SC(=S)NC2=O)ccc1OS(=O)(=O)c1ccc(C)cc1,EC50,Protein RecA,11.9 µM (active)
same,IC50,[3],13.4 µM (not active)
same,IC50,Aminopeptidase N,51.8 µM (active)
same,IC50,[4],3.44 µM (active)
same,IC50,[5],10.3 µM (active)
same,AC50,[6],3.21 µM (active)
COc1ccccc1NS(=O)(=O)c1ccc(NN=C2CCCC2)c([N+](=O)[O-])c1,IC50,[7],> 64 µM (inactive)
Cc1ccc(NC(=O)CN(C)C2CCCCC2)cc1Br,IC50,[8],137 µM (active)
same,EC50,[2],> 50 µM (active)
Cn1c(=O)n(C)c2cc(C(=O)Nc3ccc4c(c3)OCO4)ccc21,IC50,HEK293,> 67.5 µM (inactive)
same,IC50,[9],4.57 µM (active)
same,IC50,[10],> 80 µM (inactive)
C=C(C)Cn1c(SCC#N)nc2ccccc2c1=O,EC50,[2],> 50 µM (active)
CCN(CC)c1ccc(CNc2nc3ccccc3n2C)cc1,EC50,[2],> 50 µM (active)
